Patent publication US20080207655A1, “Diaminopyrimidines as P2X3 and P2X2/3 modulators” (Roche Palo Alto LLC, priority 2007, published 2008)
Each block holds one molecule with its values, some of them ahead of it.

Tests used:
[1] = biological target: T1, rat P2X3 receptor (Rattus norvegicus, UniProt P49654); assay: P2X3 FLIPR (Fluorometric Imaging Plate Reader) assay, CHO-K1 cells, α,β-meATP-evoked calcium fluorescence; assay type: cell-based; conditions: agonist α,β-meATP 1 μM
T1 construct: expressed in transfected cells; host or cells: CHO-K1
T1 sequence (P49654 1-397): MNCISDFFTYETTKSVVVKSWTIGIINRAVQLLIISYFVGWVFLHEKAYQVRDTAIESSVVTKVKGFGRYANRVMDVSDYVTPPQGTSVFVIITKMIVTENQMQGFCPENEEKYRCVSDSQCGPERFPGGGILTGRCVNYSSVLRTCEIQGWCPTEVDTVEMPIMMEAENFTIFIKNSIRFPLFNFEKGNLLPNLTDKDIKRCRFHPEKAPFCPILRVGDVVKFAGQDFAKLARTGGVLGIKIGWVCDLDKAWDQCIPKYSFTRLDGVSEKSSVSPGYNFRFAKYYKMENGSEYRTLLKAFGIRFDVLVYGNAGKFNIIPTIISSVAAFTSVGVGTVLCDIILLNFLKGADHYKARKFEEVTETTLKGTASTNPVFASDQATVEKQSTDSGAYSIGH
Procedure: (§1) CHO-K1 cells were transfected with cloned rat P2X3 or human P2X2/3 receptor subunits and passaged in flasks. 18-24 hours before the FLIPR experiment, cells were released from their flasks, centrifuged, and resuspended in nutrient medium at 2.5×10^5 cells/ml. The cells were aliquoted into black-walled 96-well plates at a density of 50,000 cells/well and incubated overnight in 5% CO2 at 37° C. On the day of the experiment, cells were washed in FLIPR buffer (calcium- and magnesium-free Hank's balanced salt solution, 10 mM HEPES, 2 mM CaCl2, 2.5 mM probenecid; FB). Each well received 100 μl FB and 100 μl of the fluorescent dye Fluo-3 AM [2 μM final conc.]. […]
(§2) Test compounds (dissolved in DMSO at 10 mM and serially diluted with FB) or vehicle were added to each well (25 μl of a 4× solution) and allowed to equilibrate for 20 minutes at room temperature. […] Fluorescence was measured for an additional 2 minutes at 1 second intervals after agonist addition. A final addition of ionomycin (5 μM, final concentration) was made to each well of the FLIPR test plate to establish cell viability and maximum fluorescence of dye-bound cytosolic calcium. Peak fluorescence in response to the addition of α,β-meATP (in the absence and presence of test compounds) was measured and inhibition curves generated using nonlinear regression. […]

[2] = biological target: T2, human P2X2/3 receptor (Homo sapiens, UniProt P56373+Q9UBL9); assay: P2X2/3 FLIPR (Fluorometric Imaging Plate Reader) assay, CHO-K1 cells, α,β-meATP-evoked calcium fluorescence; assay type: cell-based; conditions: agonist α,β-meATP 5 μM
T2 construct: expressed in transfected cells; host or cells: CHO-K1
T2 sequence (Q9UBL9 1-471): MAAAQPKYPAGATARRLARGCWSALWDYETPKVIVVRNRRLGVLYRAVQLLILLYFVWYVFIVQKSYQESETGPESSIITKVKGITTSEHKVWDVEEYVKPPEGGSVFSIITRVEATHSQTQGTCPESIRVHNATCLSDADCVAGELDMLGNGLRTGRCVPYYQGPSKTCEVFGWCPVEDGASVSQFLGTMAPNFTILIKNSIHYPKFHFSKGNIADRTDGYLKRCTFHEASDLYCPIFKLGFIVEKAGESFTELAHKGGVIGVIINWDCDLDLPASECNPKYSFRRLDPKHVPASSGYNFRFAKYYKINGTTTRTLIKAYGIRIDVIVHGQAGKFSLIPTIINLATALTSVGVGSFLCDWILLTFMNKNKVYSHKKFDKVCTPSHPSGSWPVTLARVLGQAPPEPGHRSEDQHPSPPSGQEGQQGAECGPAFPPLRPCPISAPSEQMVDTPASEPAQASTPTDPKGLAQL
T2 sequence (P56373 1-397): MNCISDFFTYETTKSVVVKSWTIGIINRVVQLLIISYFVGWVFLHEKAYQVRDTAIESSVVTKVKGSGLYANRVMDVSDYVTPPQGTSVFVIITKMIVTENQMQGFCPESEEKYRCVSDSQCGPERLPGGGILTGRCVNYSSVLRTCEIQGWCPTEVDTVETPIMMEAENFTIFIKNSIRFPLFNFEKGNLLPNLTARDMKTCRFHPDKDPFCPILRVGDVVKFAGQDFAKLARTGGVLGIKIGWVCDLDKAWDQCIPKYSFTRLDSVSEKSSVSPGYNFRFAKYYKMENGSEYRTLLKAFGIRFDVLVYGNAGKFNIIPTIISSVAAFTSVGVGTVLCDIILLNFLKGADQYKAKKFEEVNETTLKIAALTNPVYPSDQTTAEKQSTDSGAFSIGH
Procedure: as §1, §2

melting point: 135.5 to 139.1 °C
Structure (SMILES): C#Cc1cc(Oc2cnc(NC(CO)CO)nc2N)c(C(C)C)cc1OC [4a, 2-[4-Amino-5-(5-ethynyl-2-isopropyl-4-methoxy-phenoxy)-pyrimidin-2-ylamino]-propane-1,3-diol]

pIC50 for the P2X3 receptor [1]: approximately 8.24
pIC50 for the P2X2/3 receptor [2]: approximately 7.99
Structure (SMILES): C#Cc1cc(Oc2cnc(N)nc2N)c(C(C)C)cc1O [4-(2,4-Diamino-pyrimidin-5-yloxy)-2-ethynyl-5-isopropyl-phenol]

IC50 ([1]; read-out: pIC50 for the P2X3 receptor (converted)): 9.77 nM
IC50 ([2]; read-out: pIC50 for the P2X2/3 receptor (converted)): 41.7 nM
Structure (SMILES): COc1cc(C(C)C)c(Oc2cnc(N)nc2N)cc1I [1b, 5-(5-Iodo-2-isopropyl-4-methoxy-phenoxy)-pyrimidine-2,4-diamine, reference compound]

melting point: 180 to 180.9 °C
Structure (SMILES): COc1cc(C(C)C)c(Oc2cnc(NC(CO)CO)nc2N)cc1S(N)(=O)=O [2a, 5-[4-Amino-2-(2-hydroxy-1-hydroxymethyl-ethylamino)-pyrimidin-5-yloxy]-4-isopropyl-2-methoxy-benzenesulfonamide]
